The source of these data is US10870652B2, “Compounds and methods for modulating bruton's tyrosine kinase” (CORVUS PHARMACEUTICALS, INC., priority 2016, dated 2020).

Some results are limits rather than exact numbers.

Holding throughout (format): biochemical
The target in assay [1] is T1, ITK (Homo sapiens, UniProt Q08881).
T1 sequence (Q08881 1-620): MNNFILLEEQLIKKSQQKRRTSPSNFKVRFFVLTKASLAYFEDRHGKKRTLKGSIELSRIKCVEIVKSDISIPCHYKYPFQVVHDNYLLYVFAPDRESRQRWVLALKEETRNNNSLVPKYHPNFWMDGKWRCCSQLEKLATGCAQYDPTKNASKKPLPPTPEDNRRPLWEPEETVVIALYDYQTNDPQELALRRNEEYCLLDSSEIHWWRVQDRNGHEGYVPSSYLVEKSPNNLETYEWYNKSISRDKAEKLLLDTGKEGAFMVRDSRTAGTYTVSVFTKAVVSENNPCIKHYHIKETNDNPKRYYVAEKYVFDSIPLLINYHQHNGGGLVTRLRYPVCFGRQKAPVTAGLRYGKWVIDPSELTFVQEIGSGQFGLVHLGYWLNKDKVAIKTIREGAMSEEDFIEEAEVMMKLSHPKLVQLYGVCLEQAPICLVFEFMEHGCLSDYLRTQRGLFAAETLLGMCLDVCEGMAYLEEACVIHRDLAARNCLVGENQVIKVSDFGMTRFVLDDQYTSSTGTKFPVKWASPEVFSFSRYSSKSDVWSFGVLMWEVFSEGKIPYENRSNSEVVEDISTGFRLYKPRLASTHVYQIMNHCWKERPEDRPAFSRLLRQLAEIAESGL
The assay can be described thus: ITK IC50 kinase inhibition assay.

For assay [2], the target named is BTK (Homo sapiens, UniProt Q06187). The assay can be described thus: BTK IC50 kinase inhibition assay.
BTK, sequence (Q06187 whole entry): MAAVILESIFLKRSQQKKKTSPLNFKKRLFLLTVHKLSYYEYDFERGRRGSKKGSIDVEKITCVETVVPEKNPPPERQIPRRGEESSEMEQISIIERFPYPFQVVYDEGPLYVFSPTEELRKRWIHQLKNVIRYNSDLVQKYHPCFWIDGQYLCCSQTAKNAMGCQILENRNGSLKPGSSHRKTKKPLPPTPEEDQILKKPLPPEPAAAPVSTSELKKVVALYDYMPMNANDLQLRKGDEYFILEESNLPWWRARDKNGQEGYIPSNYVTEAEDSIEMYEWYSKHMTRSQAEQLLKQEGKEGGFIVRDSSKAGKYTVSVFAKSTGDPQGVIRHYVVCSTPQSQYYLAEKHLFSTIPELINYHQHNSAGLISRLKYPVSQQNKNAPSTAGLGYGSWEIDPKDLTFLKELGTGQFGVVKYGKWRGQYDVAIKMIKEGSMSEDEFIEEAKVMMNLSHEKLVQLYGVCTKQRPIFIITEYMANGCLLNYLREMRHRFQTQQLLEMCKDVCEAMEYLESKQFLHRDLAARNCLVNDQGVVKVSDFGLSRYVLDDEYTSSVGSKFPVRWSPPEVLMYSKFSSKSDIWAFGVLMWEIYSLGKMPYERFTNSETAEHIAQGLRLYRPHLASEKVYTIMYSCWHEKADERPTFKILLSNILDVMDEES
For assay [3], the target named is T2, JAK3 (Homo sapiens, UniProt P52333).
T2 sequence (P52333 1-1124): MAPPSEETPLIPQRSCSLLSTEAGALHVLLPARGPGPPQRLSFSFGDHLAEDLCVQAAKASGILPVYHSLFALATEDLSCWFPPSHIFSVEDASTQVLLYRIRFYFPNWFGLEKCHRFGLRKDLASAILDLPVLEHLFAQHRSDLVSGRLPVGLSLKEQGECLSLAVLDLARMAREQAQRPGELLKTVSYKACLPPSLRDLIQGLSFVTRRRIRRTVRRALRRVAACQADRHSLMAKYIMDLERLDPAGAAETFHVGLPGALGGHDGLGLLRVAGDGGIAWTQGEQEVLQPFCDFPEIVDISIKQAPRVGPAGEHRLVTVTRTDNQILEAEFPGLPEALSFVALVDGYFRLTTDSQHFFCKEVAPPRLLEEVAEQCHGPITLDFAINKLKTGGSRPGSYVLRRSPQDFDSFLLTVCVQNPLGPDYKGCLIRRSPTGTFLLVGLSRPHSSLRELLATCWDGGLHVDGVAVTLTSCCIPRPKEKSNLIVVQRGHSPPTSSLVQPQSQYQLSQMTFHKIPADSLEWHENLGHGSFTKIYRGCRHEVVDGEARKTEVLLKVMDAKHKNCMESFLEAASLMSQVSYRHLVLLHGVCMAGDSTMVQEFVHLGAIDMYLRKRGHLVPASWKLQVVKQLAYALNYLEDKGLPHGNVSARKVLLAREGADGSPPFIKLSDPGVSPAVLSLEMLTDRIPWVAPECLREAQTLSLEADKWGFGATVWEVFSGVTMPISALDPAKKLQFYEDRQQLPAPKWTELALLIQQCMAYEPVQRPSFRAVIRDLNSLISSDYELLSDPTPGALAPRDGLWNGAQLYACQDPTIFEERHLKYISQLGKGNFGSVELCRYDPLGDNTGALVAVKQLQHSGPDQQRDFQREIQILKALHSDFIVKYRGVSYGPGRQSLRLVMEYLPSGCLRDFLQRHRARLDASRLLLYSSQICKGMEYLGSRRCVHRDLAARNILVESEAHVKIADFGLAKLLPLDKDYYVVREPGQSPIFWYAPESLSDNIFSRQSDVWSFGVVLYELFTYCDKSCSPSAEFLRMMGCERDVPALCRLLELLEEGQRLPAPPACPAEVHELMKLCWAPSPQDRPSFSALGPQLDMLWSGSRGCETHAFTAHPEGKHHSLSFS
Put plainly: JAK3 IC50 kinase inhibition assay.

Assay [4] addresses T3, TXK (Homo sapiens, UniProt P42681).
T3 sequence (P42681 1-527): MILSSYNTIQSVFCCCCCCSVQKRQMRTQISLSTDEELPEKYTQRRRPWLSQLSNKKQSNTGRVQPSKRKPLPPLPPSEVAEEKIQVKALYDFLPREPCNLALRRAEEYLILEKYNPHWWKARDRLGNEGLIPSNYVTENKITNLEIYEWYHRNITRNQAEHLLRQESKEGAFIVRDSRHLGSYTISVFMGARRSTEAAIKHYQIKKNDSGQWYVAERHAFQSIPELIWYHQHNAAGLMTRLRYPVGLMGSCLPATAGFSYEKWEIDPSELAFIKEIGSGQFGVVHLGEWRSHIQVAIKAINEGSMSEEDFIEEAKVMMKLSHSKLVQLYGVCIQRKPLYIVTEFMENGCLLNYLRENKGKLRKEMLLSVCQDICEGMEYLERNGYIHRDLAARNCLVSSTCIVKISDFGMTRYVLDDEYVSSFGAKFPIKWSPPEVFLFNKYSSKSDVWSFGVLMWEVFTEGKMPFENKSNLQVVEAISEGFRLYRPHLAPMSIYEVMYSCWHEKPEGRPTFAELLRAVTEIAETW
The assay can be described thus: TXK IC50 kinase inhibition assay.

As usually defined, the IC50 is the point on the concentration scale where inhibition reaches its midpoint. A lower IC50 goes with higher potency. Regarding `CC#CC(=O)N1CC2(CC(n3nc(-c4ccc(Oc5ccccc5)cc4)c4cncnc43)C2)C1` [Compound A60, 1-(6-(3-(4-phenoxyphenyl)-1H-pyrazolo[3,4-d]pyrimidin-1-yl)-2-azaspiro[3.3]heptan-2-yl)but-2-yn-1-one], the IC50 in assay [1] was more than 500 nM; in assay [2] it was less than 100 nM; in assay [3], more than 500 nM; in assay [4], less than 100 nM.

For the compound `CC#CC(=O)Nc1ccccc1Cn1nc(-c2ccc(Oc3ccccc3)cc2)c2cncnc21` [Compound A61, N-(2-((3-(4-phenoxyphenyl)-1H-pyrazolo[3,4-d]pyrimidin-1-yl)methyl)phenyl)but-2-ynamide], the IC50 in assay [1] was more than 500 nM; in assay [2] it was more than 500 nM; in assay [3] it was more than 500 nM; in assay [4] it was less than 100 nM.

In the case of `C=C(F)C(=O)N1CCC[C@@H](n2nc(-c3ccc(Oc4ccccc4)cc3)c3cncnc32)C1` [Compound A62, (R)-2-fluoro-1-(3-(3-(4-phenoxyphenyl)-1H-pyrazolo[3,4-d]pyrimidin-1-yl)piperidin-1-yl)prop-2-en-1-one], the IC50 in assay [1] is more than 500 nM; in assay [2], 100 to 500 nM; in assay [3] it was more than 500 nM; in assay [4] it was 100 to 500 nM.

Take `CC#CC(=O)N1CC[C@@H](Cn2nc(-c3ccc(Oc4ccccc4)cc3)c3cncnc32)C1` [Compound A63, (R)-1-(3-((3-(4-phenoxyphenyl)-1H-pyrazolo[3,4-d]pyrimidin-1-yl)methyl)pyrrolidin-1-yl)but-2-yn-1-one]: the IC50 in assay [1] is more than 500 nM; in assay [2] it was 100 to 500 nM; in assay [3] it was more than 500 nM; in assay [4] it was more than 500 nM.

With `CC#CC(=O)N1CC[C@H](Cn2nc(-c3ccc(Oc4ccccc4)cc3)c3cncnc32)C1` [Compound A64, (S)-1-(3-((3-(4-phenoxyphenyl)-1H-pyrazolo[3,4-d]pyrimidin-1-yl)methyl)pyrrolidin-1-yl)but-2-yn-1-one], the half-inhibitory concentration (IC50) in assay [1] was more than 500 nM; in assay [2], less than 100 nM; in assay [3] it was more than 500 nM; in assay [4], 100 to 500 nM.

Turning to `CC#CC(=O)N1CCC[C@@H]1Cn1nc(-c2ccc(Oc3ccccc3)cc2)c2cncnc21` [Compound A65, (R)-1-(2-((3-(4-phenoxyphenyl)-1H-pyrazolo[3,4-d]pyrimidin-1-yl)methyl)pyrrolidin-1-yl)but-2-yn-1-one], the IC50 was more than 500 nM in assay [1], 100 to 500 nM in assay [2], more than 500 nM in assay [3] and more than 500 nM in assay [4].

With `CC#CC(=O)N1CC[C@H]1Cn1nc(-c2ccc(Oc3ccccc3)cc2)c2cncnc21` [Compound A66, (S)-1-(2-((3-(4-phenoxyphenyl)-1H-pyrazolo[3,4-d]pyrimidin-1-yl)methyl)azetidin-1-yl)but-2-yn-1-one], the IC50 was more than 500 nM in assay [1], 100 to 500 nM in assay [2], more than 500 nM in assay [3] and more than 500 nM in assay [4].

`CC#CC(=O)N1CC[C@@H]1Cn1nc(-c2ccc(Oc3ccccc3)cc2)c2cncnc21` [Compound A67, (R)-1-(2-((3-(4-phenoxyphenyl)-1H-pyrazolo[3,4-d]pyrimidin-1-yl)methyl)azetidin-1-yl)but-2-yn-1-one]: the IC50 was more than 500 nM in assay [1], 100 to 500 nM in assay [2], more than 500 nM in assay [3] and more than 500 nM in assay [4].

Consider `CC#CC(=O)N1CCC2(CC1)CC(n1nc(-c3ccc(Oc4ccccc4)cc3)c3cncnc31)C2` [Compound A68, 1-(2-(3-(4-phenoxyphenyl)-1H-pyrazolo[3,4-d]pyrimidin-1-yl)-7-azaspiro[3.5]nonan-7-yl)but-2-yn-1-one], for which the IC50 in assay [1], in assay [2], in assay [3] and in assay [4] was more than 500 nM throughout.

As for `CC#CC(=O)N[C@H]1C[C@H](n2nc(-c3ccc(Oc4ccccc4)cc3)c3cncnc32)C1` [Compound A69, N-((1r,3r)-3-(3-(4-phenoxyphenyl)-1H-pyrazolo[3,4-d]pyrimidin-1-yl)cyclobutyl)but-2-ynamide], the IC50 is more than 500 nM in assay [1], less than 100 nM in assay [2], more than 500 nM in assay [3] and more than 500 nM in assay [4].

On to `CC#CC(=O)N[C@H]1CC[C@H](n2nc(-c3ccc(Oc4ccccc4)cc3)c3cncnc32)CC1` [Compound A70, N-((1r,4r)-4-(3-(4-phenoxyphenyl)-1H-pyrazolo[3,4-d]pyrimidin-1-yl)cyclohexyl)but-2-ynamide], for which the 50% inhibitory concentration (IC50) in assay [1], in assay [2], in assay [3] and in assay [4] was more than 500 nM in each case.

Take `CCC#CC(=O)N1CC2(CC(n3nc(-c4ccc(Oc5ccccc5)cc4)c4cncnc43)C2)C1` [Compound A71, 1-(6-(3-(4-phenoxyphenyl)-1H-pyrazolo[3,4-d]pyrimidin-1-yl)-2-azaspiro[3.3]heptan-2-yl)pent-2-yn-1-one]: the 50% inhibitory concentration (IC50) in assay [1] was more than 500 nM; in assay [2], 100 to 500 nM; in assay [3] it was more than 500 nM; in assay [4], 100 to 500 nM.

Consider `C=CC(=O)N1CCC[C@@H](n2nc(-c3ccc(Oc4ccccc4)cc3)c3cncc(C#N)c32)C1` [Compound A72, (R)-1-(1-acryloylpiperidin-3-yl)-3-(4-phenoxyphenyl)-1H-pyrazolo[4,3-c]pyridine-7-carbonitrile], for which the IC50 in assay [1] was more than 500 nM; in assay [2], less than 100 nM; in assay [3], more than 500 nM; in assay [4], less than 100 nM.

Regarding `C=CC(=O)N1CC[C@@H](n2nc(-c3ccc(Oc4ccccc4)cc3)c3cncc(C#N)c32)C1` [Compound A73, (R)-1-(1-acryloylpyrrolidin-3-yl)-3-(4-phenoxyphenyl)-1H-pyrazolo[4,3-c]pyridine-7-carbonitrile], the IC50 in assay [1] is more than 500 nM; in assay [2], less than 100 nM; in assay [3], more than 500 nM; in assay [4], less than 100 nM.

For `C=CC(=O)N1CCC[C@H]1Cn1nc(-c2ccc(Oc3ccccc3)cc2)c2cncc(C#N)c21` [Compound A74, (S)-1-((1-Acryloylpyrrolidin-2-yl)methyl)-3-(4-phenoxyphenyl)-1H-pyrazolo[4,3-c]pyridine-7-carbonitrile], the IC50 in assay [1] was more than 500 nM; in assay [2], less than 100 nM; in assay [3], more than 500 nM; in assay [4], more than 500 nM.
